The target of assay [1] is T1, human PHD2 (Homo sapiens (Human), UniProt Q9GZT9). Nature of the assay: Test 1: human PHD2 inhibitory activity, [14C]-2-oxoglutarate to [14C]-succinic acid radiometric assay with HIF-1α peptide. In kind it is biochemical. The settings on record: test compound's concentration 1 μM; Test 1, [14C]-2-oxoglutarate radiometric assay; read-out: Percent inhibition (% at 1 μM). The gist of the method:
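Lysate from HighFive insect cells expressing human PHD2 (4 μg/well) was incubated for 15 min at 37° C with a 19-residue HIF-1α peptide and [14C]-2-oxoglutarate. Unreacted 2-oxoglutarate was precipitated with DNPH and filtered off, and [14C]-succinic acid was counted. Inhibition was calculated relative to substrate-free and compound-free controls.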

Assay [2] concerns the target T1, human PHD2. Nature of the assay: Test 2: human PHD2 inhibitory activity, fluorescence polarization assay of HIF-1α peptide proline hydroxylation. In kind it is biochemical. As to conditions: for inhibition at 1 µM: test compound's concentration 1 μM, Test 2, fluorescence polarization assay, read-out: Percent inhibition (% at 1 μM); for IC50: human PHD2, fluorescence polarization assay, 20-min incubation at 30° C. The gist of the method:
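Enzyme from lysate of cells expressing human PHD2 (NM_022051), 40 ng/well, added to compound and 19-residue HIF-1α peptide substrate; 20 min at 30° C., EDTA quench. Prolyl hydroxylation detected by HIF-OH antibody binding via fluorescence polarization; inhibition relative to compound-free wells.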

T1 sequence (Q9GZT9 whole entry): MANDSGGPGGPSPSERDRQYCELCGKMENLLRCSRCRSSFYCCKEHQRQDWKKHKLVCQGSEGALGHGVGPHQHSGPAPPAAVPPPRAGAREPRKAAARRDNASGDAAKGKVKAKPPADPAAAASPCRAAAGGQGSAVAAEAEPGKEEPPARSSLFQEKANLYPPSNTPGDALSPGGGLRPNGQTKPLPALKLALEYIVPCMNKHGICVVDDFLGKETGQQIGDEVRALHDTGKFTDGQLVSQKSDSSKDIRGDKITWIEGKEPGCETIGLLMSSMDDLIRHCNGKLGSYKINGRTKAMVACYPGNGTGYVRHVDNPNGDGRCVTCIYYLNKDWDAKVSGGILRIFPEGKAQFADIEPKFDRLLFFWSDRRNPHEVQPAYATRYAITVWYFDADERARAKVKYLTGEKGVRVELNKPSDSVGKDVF

For the compound `Cc1ccc(CN2CC3(CCC3)C(O)=C(C(=O)NCC(=O)O)C2=O)cc1` [Ex. 1-90], the inhibition at 1 µM was 58% in assay [1] and 63% in assay [2].
The corresponding values for `CC1(C)CC(O)=C(C(=O)NCC(=O)O)C(=O)N1Cc1ccc(Br)cc1` [Ex. 1-150] are 63% and 71%.
For the compound `CC1(C)C(O)=C(C(=O)NCC(=O)O)C(=O)N(Cc2ccc(C(F)(F)F)cc2)C1(C)C` [Ex. 1-175], the inhibition at 1 µM in assay [1] was found to be 32%; in assay [2], 56%.
Turning to `O=C(O)CNC(=O)C1=C(O)CCN(Cc2ccc(Cl)c(OC(F)(F)F)c2)C1=O` [Ex. 1-160], the results for the inhibition at 1 µM in assay [1] and in assay [2] were 74% and 85%, respectively.
The corresponding values for `O=C(O)CNC(=O)C1=C(O)CC2(CCCCC2)N(Cc2ccc(-c3ccccn3)cc2)C1=O` [Ex. 1-111] are 68% and 80%.
On to `CCC1CC(O)=C(C(=O)NCC(=O)O)C(=O)N1Cc1ccc(C(F)(F)F)cc1` (stereo not drawn) [Ex. 1-182], for which the inhibition at 1 µM in assay [1] was found to be 77%; in assay [2] it was 71%.
For `CC1CC(O)=C(C(=O)NCC(=O)O)C(=O)N1Cc1cnc(-c2ccccc2)s1` (stereo not drawn) [Ex. 1-94], the inhibition at 1 µM in assay [1] came to 84%; in assay [2] it was 92%.
Take `O=C(O)CNC(=O)C1=C(O)CC2(CCC2)N(Cc2ccc(-c3ccccn3)cc2)C1=O` [Ex. 1-130]: the values for the inhibition at 1 µM in assay [1] and in assay [2] were 89% and 90%, respectively.
In the case of `O=C(O)CNC(=O)C1=C(O)CC2(COC2)N(Cc2ccc(C(F)(F)F)cc2)C1=O` [Ex. 1-124], the values for the inhibition at 1 µM in assay [1] and in assay [2] were 72% and 79%, respectively.
Consider `O=C(O)CNC(=O)C1=C(O)C2(CC2)CN(Cc2ccc(-c3ccccc3)cc2)C1=O` [Ex. 1-200], for which the inhibition at 1 µM in assay [1] amounted to 98%; in assay [2], 99%.
Turning to `O=C(O)CNC(=O)C1=C(O)CCN(Cc2ccc3c(c2)CCCC3)C1=O` [Ex. 1-46], the values for the inhibition at 1 µM in assay [1] and in assay [2] were 78% and 84%, respectively.
The corresponding values for `CC1CC(O)=C(C(=O)NCC(=O)O)C(=O)N1Cc1ccc(-c2ccc(C(F)(F)F)cc2)cc1` (stereo not drawn) [Ex. 1-100] are 64% and 84%.
Regarding `Cc1ccc(CN2CC(C)C(O)=C(C(=O)NCC(=O)O)C2=O)cc1` (stereo not drawn) [Ex. 1-92], the inhibition at 1 µM in assay [1] worked out at 69%; in assay [2], 66%.
Take `CC1(C)CC(O)=C(C(=O)NCC(=O)O)C(=O)N1Cc1ccc(OCCC2CC2)cc1` [Ex. 1-247]: the figures for the inhibition at 1 µM in assay [1] and in assay [2] were 81% and 82%, respectively.
On to `O=C(O)CNC(=O)C1=C(O)CCN(Cc2ccc(Oc3ccccc3)cc2)C1=O` [Ex. 1-28], for which the inhibition at 1 µM stood at 94% in assay [1] and 92% in assay [2]. Inhibition in assay [2] was half-maximal at 88 nM (IC50).
For the compound `CC1(C)CC(O)=C(C(=O)NCC(=O)O)C(=O)N1Cc1ccc(OC2CCCC2)cc1` [Ex. 1-272], the figures for the inhibition at 1 µM in assay [1] and in assay [2] were 65% and 82%, respectively.
In the case of `O=C(O)CNC(=O)C1=C(O)CCN(Cc2ccc(-c3ccc(F)cc3)cc2)C1=O` [Ex. 2-28], the results for the inhibition at 1 µM in assay [1] and in assay [2] were 90% and 97%, respectively.
With `O=C(O)CNC(=O)C1=C(O)CCN(Cc2ccc(OCc3ccc(Cl)cc3)cc2)C1=O` [Ex. 1-242], the inhibition at 1 µM in assay [1] is 100%; in assay [2], 101%.
As for `CC1(C)CC(O)=C(C(=O)NCC(=O)O)C(=O)N1Cc1ccc(OCC2CCC2)cc1` [Ex. 1-239], the figures for the inhibition at 1 µM in assay [1] and in assay [2] were 74% and 87%, respectively.
Consider `O=C(O)CNC(=O)C1=C(O)CC2(CCC2)N(Cc2ccc(OCC3CC3)cc2)C1=O` [Ex. 1-267], for which the inhibition at 1 µM was 81% in assay [1] and 86% in assay [2].
For the compound `COc1ccc(CN2CCC(O)=C(C(=O)NCC(=O)O)C2=O)c(OC)c1` [Ex. 4-1, N-{[1-(2,4-Dimethoxybenzyl)-4-hydroxy-2-oxo-1,2,5,6-tetrahydropyridin-3-yl]carbonyl}glycine], the inhibition at 1 µM in assay [1] amounted to 58%; in assay [2], 67%.
For the compound `O=C(O)CNC(=O)C1=C(O)CCN(Cc2ccc3cccnc3c2)C1=O` [Ex. 1-32], the inhibition at 1 µM came to 78% in assay [1] and 82% in assay [2].
On to `O=C(O)CNC(=O)C1=C(O)CC2(COC2)N(Cc2ccc(-c3ccccc3)cc2)C1=O` [Ex. 1-2, N-{[5-(Biphenyl-4-ylmethyl)-8-hydroxy-6-oxo-2-oxa-5-azaspiro[3.5]non-7-en-7-yl]carbonyl}glycine], for which the values for the inhibition at 1 µM in assay [1] and in assay [2] were 94% and 92%, respectively.
Turning to `CC1(C)CC(O)=C(C(=O)NCC(=O)O)C(=O)N1Cc1ccc(Cl)c(OC(F)(F)F)c1` [Ex. 1-165], the inhibition at 1 µM in assay [1] turned out to be 42%; in assay [2] it was 55%.
As to `O=C(O)CNC(=O)C1=C(O)CCN(C2(c3ccc(-c4ccccc4)cc3)CC2)C1=O` [Ex. 1-219], the values for the inhibition at 1 µM in assay [1] and in assay [2] were 69% and 88%, respectively.
Consider `CC1CC(O)=C(C(=O)NCC(=O)O)C(=O)N1Cc1ccc(-c2ccccn2)cc1` (stereo not drawn) [Ex. 1-77], for which the inhibition at 1 µM in assay [1] is 74%; in assay [2] it was 85%.
As for `O=C(O)CNC(=O)C1=C(O)CC2(CCCCC2)N(Cc2ccc(C(F)(F)F)cn2)C1=O` [Ex. 1-142], the figures for the inhibition at 1 µM in assay [1] and in assay [2] were 54% and 52%, respectively.
Take `COc1ccc(CN2C(=O)C(C(=O)NCC(=O)O)=C(O)CC2(C)C)cc1OC(F)(F)F` [Ex. 1-169]: the inhibition at 1 µM in assay [1] was 28%; in assay [2] it was 43%.
As to `O=C(O)CNC(=O)C1=C(O)CC2(COC2)N(CC2CCC(c3ccccc3)CC2)C1=O` (stereo not drawn) [Ex. 1-132], the inhibition at 1 µM worked out at 103% in assay [1] and 94% in assay [2].
In the case of `CC1(C)CN(Cc2ccc(OC(F)(F)F)c(Cl)c2)C(=O)C(C(=O)NCC(=O)O)=C1O` [Ex. 1-304], the figures for the inhibition at 1 µM in assay [1] and in assay [2] were 35% and 72%, respectively.
As for `CC1(C)CC(O)=C(C(=O)NCC(=O)O)C(=O)N1Cc1ccc(OC(F)(F)F)c(Cl)c1` [Ex. 1-164], the inhibition at 1 µM was determined as 49% in assay [1] and 66% in assay [2].
As to `CC1(C)CC(O)=C(C(=O)NCC(=O)O)C(=O)N1Cc1cc(-c2ccc(Cl)cc2)no1` [Ex. 1-213], the inhibition at 1 µM in assay [1] and in assay [2] was 88% each time.
Take `CC1(C)CC(O)=C(C(=O)NCC(=O)O)C(=O)N1Cc1coc(-c2ccccc2)n1` [Ex. 1-295]: the results for the inhibition at 1 µM in assay [1] and in assay [2] were 63% and 74%, respectively.
`O=C(O)CNC(=O)C1=C(O)C2CCCCC2N(Cc2ccc(C(F)(F)F)cc2)C1=O` (stereo not drawn) [Ex. 1-143]: the values for the inhibition at 1 µM in assay [1] and in assay [2] were 41% and 65%, respectively.
As for `O=C(O)CNC(=O)C1=C(O)C2(CCCCC2)CN(Cc2cnc(-c3ccccc3)s2)C1=O` [Ex. 1-91], the inhibition at 1 µM in assay [1] came to 85%; in assay [2] it was 94%.
`CC1(C)CC(O)=C(C(=O)NCC(=O)O)C(=O)N1C[C@@H]1C[C@@H]1c1ccccc1` [Ex. 1-244]: the figures for the inhibition at 1 µM in assay [1] and in assay [2] were 47% and 50%, respectively.
In the case of `O=C(O)CNC(=O)C1=C(O)CCN(Cc2ccccc2)C1=O` [Ex. 1-21], the inhibition at 1 µM in assay [1] came out at 72%; in assay [2], 73%.
Consider `O=C(O)CNC(=O)C1=C(O)CC2(CCCC2)N(Cc2ccc(-c3ccccc3)cc2)C1=O` [Ex. 1-9], for which the values for the inhibition at 1 µM in assay [1] and in assay [2] were 88% and 93%, respectively.
As to `O=C(O)CNC(=O)C1=C(O)CCN(Cc2cnc(C3CCCCC3)nc2)C1=O` [Ex. 1-43], the inhibition at 1 µM worked out at 74% in assay [1] and 79% in assay [2].
For `Cc1ccc(CN2C(=O)C(C(=O)NCC(=O)O)=C(O)CC23CCC3)cc1` [Ex. 1-121] the same measures were 66% and 71%.
Regarding `O=C(O)CNC(=O)C1=C(O)CCN(Cc2ccc(-c3ccccn3)cc2)C1=O` [Ex. 1-35], the inhibition at 1 µM amounted to 81% in assay [1] and 90% in assay [2].
With `O=C(O)CNC(=O)C1=C(O)C2(CCOCC2)CN(Cc2ccc(-c3ccccc3)cc2)C1=O` [Ex. 1-11], the figures for the inhibition at 1 µM in assay [1] and in assay [2] were 95% and 93%, respectively.
The corresponding values for `O=C(O)CNC(=O)C1=C(O)CCN(Cc2ccc(C3CC3)c(C(F)(F)F)c2)C1=O` [Ex. 1-212] are 82% and 85%.
Consider `O=C(O)CNC(=O)C1=C(O)CCN(Cc2ccc(Oc3ccc(C(F)(F)F)cc3)nc2)C1=O` [Ex. 1-254], for which the figures for the inhibition at 1 µM in assay [1] and in assay [2] were 103% and 96%, respectively. Moreover, the IC50 in assay [2] came out at 24 nM.
As to `O=C(O)CNC(=O)C1=C(O)CCN(Cc2ccc(OCC(F)(F)F)c(F)c2)C1=O` [Ex. 1-292], the inhibition at 1 µM in assay [1] worked out at 83%; in assay [2], 86%.
Turning to `O=C(O)CNC(=O)C1=C(O)CCN(Cc2ccc(OCC(F)(F)F)c(Cl)c2)C1=O` [Ex. 1-222], the inhibition at 1 µM in assay [1] is 90%; in assay [2], 89%.
As to `O=C(O)CNC(=O)C1=C(O)CC2(CCOCC2)N(Cc2ccc(-c3ccc(C(F)(F)F)cc3)cc2)C1=O` [Ex. 1-1, N-[(4-Hydroxy-2-oxo-1-{[4′-(trifluoromethyl)biphenyl-4-yl]methyl}-9-oxa-1-azaspiro[5.5]undec-3-en-3-yl)carbonyl]glycine], the inhibition at 1 µM in assay [1] amounted to 78%; in assay [2] it was 94%.
Turning to `O=C(O)CNC(=O)C1=C(O)CCN(Cc2ccc(Oc3ccccc3)nc2)C1=O` [Ex. 1-72], the inhibition at 1 µM in assay [1] was determined as 98%; in assay [2], 89%. For the same compound, in assay [2], it took 94 nM to reach half-maximal inhibition (IC50).

These data come from patent US9422240B2, “Partially saturated nitrogen-containing heterocyclic compound” (TAISHO PHARMACEUTICAL CO., LTD, priority 2012, dated 2016).
